Where a name gives a salt, the structure may show the parent alone.
Target: T1, hCaSR (Calcium sensing receptor) in stably transfected HEK293 cells (Homo sapiens, UniProt P41180)
T1 construct: expressed in transfected cells; host or cells: HEK293 (stably transfected)
T1 sequence (P41180 20-1078): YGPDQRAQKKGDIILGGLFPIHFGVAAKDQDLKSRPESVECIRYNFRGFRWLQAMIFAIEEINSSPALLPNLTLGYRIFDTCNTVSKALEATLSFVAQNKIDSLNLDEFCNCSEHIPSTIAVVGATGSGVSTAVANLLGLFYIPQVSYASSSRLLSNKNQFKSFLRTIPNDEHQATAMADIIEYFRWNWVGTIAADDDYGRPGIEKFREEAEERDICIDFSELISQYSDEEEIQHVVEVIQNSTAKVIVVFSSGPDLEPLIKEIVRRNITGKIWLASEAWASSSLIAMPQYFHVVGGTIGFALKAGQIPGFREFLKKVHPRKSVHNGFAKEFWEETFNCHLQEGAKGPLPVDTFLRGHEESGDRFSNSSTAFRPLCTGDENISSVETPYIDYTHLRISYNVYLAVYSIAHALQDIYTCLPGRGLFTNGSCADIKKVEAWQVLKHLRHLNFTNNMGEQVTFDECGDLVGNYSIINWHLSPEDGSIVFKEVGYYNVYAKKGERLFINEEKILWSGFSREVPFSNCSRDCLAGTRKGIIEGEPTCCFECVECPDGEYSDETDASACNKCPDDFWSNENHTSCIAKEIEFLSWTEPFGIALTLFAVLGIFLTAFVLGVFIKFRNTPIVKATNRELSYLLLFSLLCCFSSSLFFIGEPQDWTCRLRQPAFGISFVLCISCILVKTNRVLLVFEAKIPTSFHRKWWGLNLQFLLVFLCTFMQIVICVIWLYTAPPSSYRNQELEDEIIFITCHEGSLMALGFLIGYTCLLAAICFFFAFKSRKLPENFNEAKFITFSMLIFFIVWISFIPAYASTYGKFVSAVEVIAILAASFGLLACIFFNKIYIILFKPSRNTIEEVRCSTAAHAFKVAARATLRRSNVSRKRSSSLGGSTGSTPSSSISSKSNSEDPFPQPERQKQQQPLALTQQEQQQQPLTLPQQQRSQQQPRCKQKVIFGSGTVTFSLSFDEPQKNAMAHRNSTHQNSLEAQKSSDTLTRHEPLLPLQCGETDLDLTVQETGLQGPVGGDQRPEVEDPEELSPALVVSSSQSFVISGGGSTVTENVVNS
Experiment: In-vitro assay of calcimimetics through modulation of calcium sensing receptor (CaSR): increase in intracellular calcium, FLIPR
Assay type: cell-based
Conditions: HEK293 cells expressing hCaSR; intracellular calcium (Fluo4NW, FLIPR); 0.3 mM CaCl2; 8-point assay; read-out: EC50 in range
Method: In-Vitro Assay Method of Calcimemtics Through Modulation of Calcium Sensing Receptor (CaSR):
The ability of the compounds to modulate Calcium sensing receptor is determined by measuring an increase in intracellular calcium [Ca^2+i]. Stably transfected HEK293 cells expressing hCaSR_pTriEx-3 hygro vector are developed. Cells are grown overnight on a 96-well plate to 80% confluency in Ham's F12 containing 20% FBS at 37° C., 5% CO2 Subsequently, cells are washed extensively with 20 mM HEPES buffer containing 126 mM NaCl2, 1 mM MgCl2 and 4 mM KCl2 to remove serum components that might interfere with the assay. Cells are loaded with calcium sensing Fluo4NW dye in HEPES base buffer containing 0.1% BSA and 1 mg/ml glucose for 30 minutes to measure changes in intracellular calcium. The activities of the compounds are measured in FLIPR using 0.3 mM CaCl2 in 20 mM HEPES base buffer. The effectiveness of the compound to modulate receptor activity is determined by calculating the EC50 responses for that compound in an 8-point assay and plotted using GraphPad Prism 5.
The compounds prepared were tested using the above assay procedure and the results obtained are given below.

Structure (SMILES) | EC50
COc1cccc([C@@H](C)NCC2COCCN2c2cccc(C(F)(F)F)c2)c1 (single isomer, unassigned) [4a] | 20 to 50 nM
COc1cccc(N2CCOCC2CN[C@H](C)c2cccc3ccccc23)c1 (single isomer, unassigned) [5a] | 50 to 200 nM
COc1cccc(N2CCOCC2CN[C@H](C)c2cccc3ccccc23)c1 (single isomer, unassigned) [5b] | < 20 nM
COc1cccc([C@@H](C)NCC2COCCN2c2cccc(OC)c2)c1 (single isomer, unassigned) [6a] | 20 to 50 nM
Cc1ccc(N2CCOCC2CN[C@H](C)c2cccc3ccccc23)cc1 (single isomer, unassigned) [7b] | 20 to 50 nM
COc1cccc([C@@H](C)NCC2COCCN2c2cccc(C)c2)c1 (single isomer, unassigned) [10a] | 50 to 200 nM
COc1cccc([C@@H](C)NCC2COCCN2c2cccc(C)c2)c1 (single isomer, unassigned) [10b] | < 20 nM
COc1cccc([C@@H](C)NCC2COCCN2c2ccccc2)c1 (single isomer, unassigned) [11a] | < 20 nM
COc1cccc(N2CCOC(CN[C@H](C)c3cccc4ccccc34)C2)c1 (single isomer, unassigned) [25a] | < 20 nM
COc1cccc(N2CCOC(CN[C@H](C)c3cccc4ccccc34)C2)c1 (single isomer, unassigned) [25b] | 20 to 50 nM
C[C@@H](NCC1CN(c2ccccc2)CCO1)c1cccc2ccccc12 (single isomer, unassigned) [26a] | < 20 nM
Cc1ccc(N2CCOC(CN[C@H](C)c3cccc4ccccc34)C2)cc1 (single isomer, unassigned) [27a] | 50 to 200 nM
Cc1ccc(N2CCOC(CN[C@H](C)c3cccc4ccccc34)C2)cc1 (single isomer, unassigned) [27b] | < 20 nM
C[C@@H](NCC1CN(c2ccc(C(F)(F)F)cc2)CCO1)c1cccc2ccccc12 (single isomer, unassigned) [33a] | < 20 nM
C[C@@H](NCC1CN(c2ccc(C(F)(F)F)cc2)CCO1)c1cccc2ccccc12 (single isomer, unassigned) [33b] | 20 to 50 nM
C[C@@H](NCC1CN(c2ccc(F)c(F)c2)C(=O)CO1)c1cccc2ccccc12 (single isomer, unassigned) [62a, hydrochloride] | < 20 nM
C[C@@H](NCC1CN(c2ccc(F)c(F)c2)C(=O)CO1)c1cccc2ccccc12 (single isomer, unassigned) [62b, hydrochloride] | 20 to 50 nM
C[C@@H](NCC1CN(Cc2cccc(C(F)(F)F)c2)C(=O)CO1)c1cccc2ccccc12 (single isomer, unassigned) [Example 70a, hydrochloride] | < 20 nM
C[C@@H](NCC1CN(Cc2cc(F)ccc2F)C(=O)CO1)c1cccc2ccccc12 (single isomer, unassigned) [Example 72a, hydrochloride] | < 20 nM
CC(C)N1CC(CN[C@H](C)c2cccc3ccccc23)OCC1=O (single isomer, unassigned) [Example 93b, hydrochloride] | 50 to 200 nM
C[C@@H](NCC1CN(CC2CC2)C(=O)CO1)c1cccc2ccccc12 (single isomer, unassigned) [Example 97a, hydrochloride] | < 20 nM
C[C@@H](NCC1CN(CCc2ccc(F)cc2)C(=O)CO1)c1cccc2ccccc12 (single isomer, unassigned) [Example 98a, hydrochloride] | < 20 nM

Structure (SMILES) | EC50
COc1cc([C@@H](C)NCC2CN(Cc3ccc(F)cc3)C(=O)CO2)ccc1F (single isomer, unassigned) [Example 101a, hydrochloride] | 20 to 50 nM
Cc1cc(N2CCOC(CCN[C@H](C)c3cccc4ccccc34)C2)ccc1C(=O)O (single isomer, unassigned) [Example 104a] | 50 to 200 nM
Cc1ccc(N2CCOC(CCN[C@H](C)c3cccc4ccccc34)C2)cc1CCC(=O)O (single isomer, unassigned) [Example 108a, hydrochloride] | 20 to 50 nM
C[C@@H](NCCC1CN(c2ccc(C(F)(F)F)c(C(=O)O)c2)CCO1)c1cccc2ccccc12 (single isomer, unassigned) [Example 110a, hydrochloride] | 50 to 200 nM
C[C@@H](NCCC1CN(c2ccc(C(=O)O)cc2)CCO1)c1cccc2ccccc12 (single isomer, unassigned) [Example 112a, hydrochloride] | 50 to 200 nM
C[C@@H](NCCC1CN(c2cccc(OCC(=O)O)c2)CCO1)c1cccc2ccccc12 (single isomer, unassigned) [Example 113a, hydrochloride] | 50 to 200 nM
Cc1cc(N2CCOC(CN[C@H](C)c3cccc4ccccc34)C2)ccc1C(=O)O (single isomer, unassigned) [Example 136b, hydrochloride] | 50 to 200 nM
C[C@@H](NCC1CN(c2cc(C(=O)O)cc(C(F)(F)F)c2)CCO1)c1cccc2ccccc12 (single isomer, unassigned) [Example 150a, hydrochloride] | < 20 nM
COc1cc([C@@H](C)NCC2CN(c3ccc(F)c(F)c3)C(=O)CO2)ccc1F (single isomer, unassigned) [Example 152b, hydrochloride] | 50 to 200 nM
COc1cc([C@@H](C)NCC2CN(Cc3cc(F)ccc3F)C(=O)CO2)ccc1F (single isomer, unassigned) [Example 160a, hydrochloride] | 20 to 50 nM
C[C@@H](NCC1COCCN1c1ccccc1)c1cccc2ccccc12 (single isomer, unassigned) [Example-1a, hydrochloride] | < 20 nM
C[C@@H](NCC1COCCN1c1cccc(C(F)(F)F)c1)c1cccc2ccccc12 (single isomer, unassigned) [Example-2a] | < 20 nM
C[C@@H](NCC1COCCN1Cc1cccc(C(F)(F)F)c1)c1cccc2ccccc12 (single isomer, unassigned) [Example-35b] | 20 to 50 nM
C[C@@H](NCC1COCCN1Cc1ccccc1)c1cccc2ccccc12 (single isomer, unassigned) [Example-36a] | 50 to 200 nM
COc1cccc([C@@H](C)NCC2COCCN2Cc2ccccc2)c1 (single isomer, unassigned) [Example-37b] | 50 to 200 nM
C[C@@H](NCC1CN(CC2CCCC2)C(=O)CO1)c1cccc2ccccc12 (single isomer, unassigned) [Example-69a] | 50 to 200 nM
C[C@@H](NCC1CN(C2CCCC2)C(=O)CO1)c1cccc2ccccc12 (stereo partly drawn) [Example 76, 4-Cyclopentyl-6-((((R)-1-(naphthalen-1-yl)ethyl)amino)methyl)morpholin-3-one hydrochloride] | < 20 nM
C[C@@H](NCC1CN(Cc2cccc(F)c2F)C(=O)CO1)c1cccc2ccccc12 (stereo partly drawn) [Example 81, 4-(2,3-Difluorobenzyl)-6-((((R)-1-(naphthalen-1-yl)ethyl)amino)methyl)morpholin-3-one hydrochloride] | < 20 nM
C[C@@H](NCC1CN(Cc2ccc(F)cc2C(F)(F)F)C(=O)CO1)c1cccc2ccccc12 (stereo partly drawn) [Example 82, 4-(4-Fluoro-2-(trifluoromethyl)benzyl)-6-((((R)-1-(naphthalen-1-yl)ethyl)amino)methyl)morpholin-3-one hydrochloride] | < 20 nM
COc1cc([C@@H](C)NCC2CN(C3CCCC3)C(=O)CO2)ccc1F (stereo partly drawn) [Example 96, 4-Cyclopentyl-6-((((R)-1-(4-fluoro-3-methoxyphenyl)ethyl)amino)methyl)morpholin-3-one hydrochloride] | 50 to 200 nM
C[C@@H](NCCC1CN(c2ccc(C(F)(F)F)cc2)CCO1)c1cccc2ccccc12 (stereo partly drawn) [Example 105, (1R)-1-(Naphthalen-1-yl)-N-(2-(4-(4-(trifluoromethyl)phenyl)morpholin-2-yl)ethyl)ethanamine] | 20 to 50 nM

From patent publication US9382216B2, “Substituted morpholines as modulators for the calcium sensing receptor” (LUPIN LIMITED, priority 2011, dated 2016)
